Measured values reported in patent publication US6812256B2, “Polysubstituted indan-1-ol systems for the prophylaxis or treatment of obesity” (Aventis Pharma Deutschland GmbH, priority 2001, dated 2004).

System: female NMRI mice
Test: Anorectic action: cumulative milk consumption after 24 h removal of feed
Format: in vivo
Details: 30 mg/kg i.p.
Procedure: The anorectic action was tested on female NMRI mice. After removal of feed for 24 hours, the preparation to be tested was administered intraperitoneally (i.p.) or by gavage (po). The animals were housed singly and, with free access to drinking water, they were offered evaporated milk 30 minutes after administration of the preparation. The consumption of evaporated milk was determined and the general behavior of the animals was monitored every half an hour for 7 hours. The measured milk consumption was compared to that of vehicle-treated control animals.

With `CC1(O)c2ccc(Cl)cc2CC1(F)S(C)(=O)=O` (centres unmarked) [Example 1, 5-Chloro-2-fluoro-2-methanesulfonyl-1-methyl-indan-1-ol] the “Reduction in cumulative milk consumption as % of the control” value (compared with control animals) was 25% and the “cumulative milk consumption by treated animals” value (feed removed for 24 h, evaporated milk offered 30 min after administration, monitored for 7 hours) was 4/2.88 ml.
